The test system of assay [1] is Abl, Akt1, Aur A, c-Kit, c-Raf, Cdk1/CycB, Chk1, FGFR3, Flt3, Fyn, IGF1-R, INSR, Lyn, MAPK-ERK1, p38a, PAK4, PKCalpha, Ret, ROCK2, RSK 1, c-Src, TIE2, and …. The assay can be described thus: Selectivity panel (Proteros), 23 other kinases. The assay is classed as biochemical. To be noted: tested at 1 mM in triplicates; each of the 23 other kinases. On the procedure:
Selected compound of the present invention were tested in a standard selectivity panel including Plk1 and 23 other kinases (Proteros biostructures GmbH, Martinsried/Munich, Germany), under conditions of non-disclosure, non-dissemination and non-use.
In brief, compounds 1, 13, 14, and 25 (see Table 1) were tested at 1 mM in triplicates against Plk1 as well as against Abl, Akt1, Aur A, c-Kit, c-Raf, Cdk1/CycB, Chk1, FGFR3, Flt3, Fyn, IGF1-R, INSR, Lyn, MAPK-ERK1, p38a, PAK4, PKCalpha, Ret, ROCK2, RSK 1, c-Src, TIE2, and VEGF-R2.

In assay [2] the test system is HCT 116. Description: SRB cell proliferation assay, HCT 116. The assay is classed as cell-based. To be noted: Homo sapiens. As to the method:
(§1) We observed the surprising finding that compounds of the invention were useful in inhibiting proliferation of tumor cell lines (see Table 3).
(§2) Cells were exposed to the test compounds at various concentrations appropriate to determine an IC50 for 72 hours. Cell proliferation was measured using the SRB assay according to Shekan et al (J Natl Cancer Inst (1990) 82, 1107-112) in order to estimate the IC50 values shown in Table 3. Briefly, cells were plated in 96 well dishes 24 hours prior to compound addition at the densities specified in Table 5.1. The assay was terminated with the addition of cold TCA to a final concentration of 10% after growth medium has been removed and the plates were incubated over night at 4°C. The plates were then washed 5 times with water and 100µl of a Sulforhodamine B solution (4%) was added to each well. The plates were then incubated for 10 minutes at room temperature before removal of unbound dye by washing with 1% acetic acid. The bound dye was solubilised with 10 mM Trizma base and the absorbance read at OD520.
(§3) Inhibitory activity of the compounds (IC) was calculated as % inhibition of cell proliferation compared to cells treated with the solvent (DMSO).
(§4) Table 8.1: 18-Cell Line Panel

The target of assay [3] is Plk1 (Homo sapiens, UniProt P53350). Description: Cellular Plk1 kinase activity: nucleophosmin (B23) Ser4 phosphorylation in HCT116 cells (MSD electrochemiluminescence). It is filed as cell-based. Set-up: host or cells: HCT116. To be noted: 100 ng/ml nocodazole, 4 hours after compound addition, read-out: Biochemical IC50 Nucleophosmin assay. On the procedure:
We observed the surprising finding that compounds of the invention were able to penetrate cell membranes and retained their activity as Plk1 inhibitors against native Plk1 expressed within living cancer cells.
Cellular Plk1 kinase activity was measured by quantification of nucleophosmin (B23) Ser4 phosphorylation in a cancer cell line. Nucleophosmin (B23) Ser4 is phosphorylated by Plk1, and this phosphorylation can be specifically detected by cross-reactivity of a phospho-Mek1/2 antibody that is able to recognizes a mitotic-specific phosphorylated form of nucleophosmin (B23) in a nocodazole dependent way (Zhang, H., Shi, X., Paddon, H., Hampong, M., Dai, W., and Pelech, S. (2004) B23/Nuleophosmin Serin 4 Phosphorylation Mediates Mitotic Functions of Polo-like Kinase 1. J. Biol. Chem., 279(34), 35726-35734).
Briefly, HCT116 cells (ATCC, Order No. CCL-247) were plated in 96 well dishes 24 hours prior to nocodazole treatment at 25 000 cells per well. Cells were then treated with 100 ng/ml nocodazole (Sigma-Aldrich, # M1404). 20 hours after nocodazole treatment, cells were exposed to the test compounds at various concentrations appropriate to determine an IC50. 4 hours after compound addition, medium was carefully removed and 120 µl of Complete Tris Lysis Buffer (R60TX; MSD, Gaithersburg MD) was added to each well. Samples were then stored at -20°C.
The level of nucleophosmin (B23) Ser4 phosphorylation in these cell lysis samples was estimated by electrochemiluminescence detection using the Meso Scale Discovery ("MSD") Technology Platform (MSD, Gaithersburg MD). The protocol used was as recommended by the manufacturer with the use of a phospho-Mek1/2 antibody (Cell Signalling, #9121) as primary antibody, and is as follows.
The cell lysates were thawed at room temperature and 40 µl were incubated on 96-well MULTI-ARRAY High Bind plates (L11XB; MSD) for 1.5 - 2 hours at room temperature. The supernatants were then removed and 150 µl of a 5% (w/v) solution of Blocker A (R93AA; MSD) in Tris Wash Buffer (R61TX; MSD) were added to each well. The plates were then incubated for 1 hour at room temperature before removal of the Blocker A solution and washed 4 times with 200 µl Tris Wash Buffer. 25 µl primary antibody (anti-phospho-MEK1/2, Cell Signalling, #9121, rabbit polyclonal), diluted 1:250 in a 1% (w/v) solution of Blocker A in Tris Wash Buffer, were added to each well. The plates were then incubated for 1 hour at room temperature before removal of the antibody solution and washed 4 times with 200 µl Tris Wash Buffer. Then, 25 µl of labelled secondary antibody (SULFO-TAG Goat Anti-Rabbit IgGAntibody (R32AB; MSD), diluted 1:500 in a 1% (w/v) solution of Blocker A in Tris Wash Buffer) were added to each well. The plates were then incubated for 1 hour at room temperature before removal of the antibody solution and washed 4 times with 200 µl Tris Wash Buffer. Then, […] of 1x Read Buffer T (R92TC; MSD) were carefully added to each well and the plates were quantitatively detected for each well with a SECTOR™ Imager 6000 (MSD).
Inhibitory activity of the compounds (IC) was calculated as % inhibition of nucleophosmin (B23) Ser4 phosphorylation compared to cells not treated with nocodazole.

Assay [4] has as its system IMR-90. The assay can be described thus: SRB cell proliferation assay, IMR-90. To be noted: Homo sapiens. The assay is classed as cell-based. On the procedure: as §1, §2, §3, §4
For assay [5], the system named is HT-29. Description: SRB cell proliferation assay, HT-29. The assay is classed as cell-based. To be noted: Homo sapiens. On the procedure:
as §1, §2, §3, §4

For assay [6], the system named is HeLa. The assay can be described thus: SRB cell proliferation assay, HeLa. The assay is classed as cell-based. To be noted: Homo sapiens, 18-Cell Line Panel, cervix. On the procedure:
as §2, §4

In assay [7] the test system is A549. Description: SRB cell proliferation assay, A549. The assay is classed as cell-based. To be noted: Homo sapiens, 18-Cell Line Panel, lung. As to the method: as §2, §4
For assay [8], the system named is ACHN. The assay can be described thus: SRB cell proliferation assay, ACHN. The settings on record: Homo sapiens, 18-Cell Line Panel, kidney. The assay is classed as cell-based. On the procedure:
as §2, §4

Assay [9] concerns PC-3. Description: SRB cell proliferation assay, PC-3. The settings on record: Homo sapiens, 18-Cell Line Panel, prostate. It is filed as cell-based. As to the method:
as §2, §4

Assay [10] has as its system MDA-MB-231. The assay can be described thus: SRB cell proliferation assay, MDA-MB-231. The assay is classed as cell-based. The settings on record: Homo sapiens, 18-Cell Line Panel, breast. As to the method:
as §2, §4

Assay [11] deals with OVCAR-3. The assay can be described thus: SRB cell proliferation assay, OVCAR-3. The assay is classed as cell-based. To be noted: Homo sapiens, 18-Cell Line Panel, ovary. On the procedure:
as §2, §4

Assay [12] relates to COLO 205. Description: SRB cell proliferation assay, COLO 205. To be noted: Homo sapiens, 18-Cell Line Panel, colon. The assay is classed as cell-based. As to the method: as §2, §4
In assay [13] the test system is DU 145. Description: SRB cell proliferation assay, DU 145. To be noted: Homo sapiens, 18-Cell Line Panel, prostate, read-out: IC50 DU145. The assay is classed as cell-based. As to the method:
as §2, §4

The test system of assay [14] is A-375. The assay can be described thus: SRB cell proliferation assay, A-375. It is filed as cell-based. To be noted: Homo sapiens, 18-Cell Line Panel, melanoma. On the procedure:
as §2, §4

For assay [15], the system named is SW620. The assay can be described thus: SRB cell proliferation assay, SW620. The assay is classed as cell-based. To be noted: Homo sapiens, SW-620; 18-Cell Line Panel; colon. On the procedure:
as §2, §4

For assay [16], the system named is SK-MEL-5. The assay can be described thus: SRB cell proliferation assay, SK-MEL-5. To be noted: Homo sapiens, 18-Cell Line Panel, melanoma. It is filed as cell-based. On the procedure: as §2, §4
Assay [17] concerns SK-MEL-28. The assay can be described thus: SRB cell proliferation assay, SK-MEL-28. The assay is classed as cell-based. To be noted: Homo sapiens, 18-Cell Line Panel, melanoma. As to the method:
as §2, §4

Assay [18] has as its system MDA-MB-468. Description: SRB cell proliferation assay, MDA-MB-468. The assay is classed as cell-based. The settings on record: 18-Cell Line Panel; breast. As to the method: as §2, §4
In assay [19] the test system is NCI-H460. The assay can be described thus: SRB cell proliferation assay, NCI-H460. To be noted: Homo sapiens, 18-Cell Line Panel, NSCLC. It is filed as cell-based. As to the method:
as §2, §4

Assay [20] has as its system A-431. Description: SRB cell proliferation assay, A-431. The assay is classed as cell-based. To be noted: Homo sapiens, 18-Cell Line Panel, skin. As to the method:
as §2, §4

Where [21] appears, read: HCT-116, 72 h, 72 hours, SRB assay, read-out: CELLULAR IC50 HCT 116.
Setting [22] is: 72 hours, SRB assay, slow cycling cell line, read-out: CELLULAR IC50 IMR-90.
[23] abbreviates: HT-29, 72 h, 72 hours, SRB assay, read-out: CELLULAR IC50 HT-29.

The structures appear in SMILES notation. pIC50: −log10 of the molar value. Like-named read-outs stand apart in the source and are kept apart here. Bounds are passed on as bounds.

Plk1, sequence (P53350 whole entry, species assumed): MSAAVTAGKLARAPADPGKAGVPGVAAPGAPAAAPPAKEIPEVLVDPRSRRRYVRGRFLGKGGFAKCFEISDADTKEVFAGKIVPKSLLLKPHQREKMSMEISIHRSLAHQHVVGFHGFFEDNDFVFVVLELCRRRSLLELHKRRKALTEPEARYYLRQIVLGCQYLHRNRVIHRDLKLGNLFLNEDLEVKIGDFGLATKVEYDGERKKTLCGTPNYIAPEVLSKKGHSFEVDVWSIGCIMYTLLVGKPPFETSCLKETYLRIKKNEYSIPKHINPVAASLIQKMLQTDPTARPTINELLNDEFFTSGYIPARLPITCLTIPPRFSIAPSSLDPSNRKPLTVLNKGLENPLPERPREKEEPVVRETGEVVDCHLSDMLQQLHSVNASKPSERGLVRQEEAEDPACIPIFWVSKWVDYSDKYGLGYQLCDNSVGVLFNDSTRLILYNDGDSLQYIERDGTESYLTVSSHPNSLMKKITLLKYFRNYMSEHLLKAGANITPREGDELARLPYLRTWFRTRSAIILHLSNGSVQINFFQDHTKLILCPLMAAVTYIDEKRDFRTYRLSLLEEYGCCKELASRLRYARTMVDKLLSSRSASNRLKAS

As to `CCC1C(=O)N(C)c2cnc(Nc3ccc(C(=O)NC4CCN(C5CCN(Cc6ccccc6)CC5)CC4)cc3OC)nc2N1N(C)C` (stereo not shown) [Compound 14, N-(1'-Benzyl-[1,4']bipiperidinyl-4-yl)-4-(8-dimethylamino-7-ethyl-5-methyl-6-oxo-5,6,7,8-tetrahydro-pteridin-2-ylamino)-3-methoxy-benzamide], in [1], the “all other kinases were inhibited” value is “less than 10%”. Further, the negative logarithm of the IC50 (pIC50) in assay [2] (setting [21]) was greater than 6.00; in [3], greater than 7.00; in assay [4] (setting [22]) it was less than 6.00; in [5] (setting [23]) it was greater than 6.00.

`CCC1C(=O)N(C)c2cnc(Nc3ccc(C(=O)NC4CCN(C)CC4)cc3OC)nc2N1N(C)CC` (stereo not shown) [Compound 25, 4-[7-Ethyl-8-(ethyl-methyl-amino)-5-methyl-6-oxo-5,6,7,8-tetrahydro-pteridin-2-ylamino]-3-methoxy-N-(1-methyl-piperidin-4-yl)-benzamide]: in assay [1], the “all other kinases were inhibited” value is listed as “less than 10%”. The pIC50 in assay [2] (setting [21]) was greater than 6.00; in assay [3], greater than 7.00; in [4] (setting [22]), less than 6.00; in assay [5] (setting [23]) it was greater than 6.00.

Consider `CCC1C(=O)N(C)c2cnc(Nc3ccc(C(=O)NC4CCN(C)CC4)cc3OC)nc2N1C1CCCC1` (stereo not shown) [BI 2536, reference compound], for which the negative logarithm of the IC50 (pIC50) was greater than 6.00 in assay [6]; greater than 6.00 in assay [7]; greater than 6.00 in assay [8]; greater than 6.00 in [9]; greater than 6.00 in assay [2] (HCT-116, 18-Cell Line Panel, colon, read-out: IC50 HCT116); greater than 6.00 in [10]. The pIC50 in [11], in [12], in assay [13], in assay [14], in assay [15] and in [16] was greater than 6.00 in each case. Moreover, the pIC50 in [17] was greater than 6.00; in assay [19], greater than 6.00; in assay [4] (18-Cell Line Panel, lung, read-out: IC50 IMR-90) it was less than 6.00; in [20], greater than 6.00; in assay [5] (HT-29, 18-Cell Line Panel, colon, read-out: IC50 HT-29), greater than 6.00. Also, in [18], the “IC50 MDA-MB-468” value is on record as “plateau at ∼50%”.

For `CCC1C(=O)N(C)c2cnc(Nc3ccc(C(=O)N[C@H]4CC[C@H](N5CCN(CC6CC6)CC5)CC4)cc3OC)nc2N1N(C)Cc1ccccc1` (relative stereo) [Compound 16, 4-[8-(Benzyl-methyl-amino)-7-ethyl-5-methyl-6-oxo-5,6,7,8-tetrahydro-pteridin-2-ylamino]-N-[trans-4-(4-cyclopropylmethyl-piperazin-1-yl)-cyclohexyl]-3-methoxy-benzamide], the negative logarithm of the IC50 (pIC50) in assay [2] (setting [21]) is greater than 6.00; in [3] it was greater than 7.00; in assay [4] (setting [22]), less than 6.00; in [5] (setting [23]), greater than 6.00.

For `CCC1C(=O)N(C)c2cnc(Nc3ccc(C(=O)NCC4CCN(CC)CC4)cc3OC)nc2N1N(C)Cc1ccccc1` (stereo not shown) [Compound 21, 4-[8-(Benzyl-methyl-amino)-7-ethyl-5-methyl-6-oxo-5,6,7,8-tetrahydro-pteridin-2-ylamino]-N-(1-ethyl-piperidin-4-ylmethyl)-3-methoxy-benzamide], the pIC50 is greater than 6.00 in assay [2] (setting [21]), greater than 6.30 in assay [3], less than 6.00 in [4] (setting [22]) and greater than 6.00 in [5] (setting [23]).

Turning to `CCC1C(=O)N(C)c2cnc(Nc3ccc(C(=O)NCC4CCN(CC)CC4)cc3OC)nc2N1N(C)CC1CCC1` (stereo not shown) [Compound 34, 4-[8-(Cyclobutylmethyl-methyl-amino)-7-ethyl-5-methyl-6-oxo-5,6,7,8-tetrahydro-pteridin-2-ylamino]-N-(1-ethyl-piperidin-4-ylmethyl)-3-methoxy-benzamide], the negative logarithm of the IC50 (pIC50) is greater than 6.00 in assay [2] (setting [21]), greater than 6.30 in [3], less than 6.00 in [4] (setting [22]) and greater than 6.00 in assay [5] (setting [23]).

Source of the values: patent EP2112152A1, “Dihydropteridinones as Plk Inhibitors” (GPC Biotech AG, priority 2008, dated 2009).
